Values quoted from earlier work as cited in US20220000797A1, “CLEAR PROPOFOL INJECTION AND PREPARATION METHOD THEREFOR” ((BIKA BIOTECHNOLOGY (GUANGZHOU) CO., LTD), priority 2018, published 2022).
Read-outs that look alike come from different tables or passages of the source.

Structure (SMILES): O=C([O-])O.[Na+] [sodium bicarbonate]
- injection pain (final concentration of sodium bicarbonate approaches 1.4%): can reduce injection pain
- injection pain (low concentration of sodium bicarbonate (0.25%)): cannot reduce injection pain
